Reference: US6638916B1, “Use of sulfated oligosaccharides as inhibitors of cardiovascular disease” (The Australian National University, priority 1997, dated 2003)
Marks after values point to notes of the source that are not given here.

Assays:
[1] = tested on: saponin-induced vascular hyperplasia; assay: Saponin-induced vascular hyperplasia model (carotid artery endothelial denudation); format: in vivo, rat; settings: for effect on saponin-induced smooth muscle cell hyperplasia (histology, in words): rat carotid artery 14 days after saponin denudation, 35 mg/kg/day days 1 to 14 by miniosmotic pump, 35 mg/kg/day
Method: In order to induce vascular hyperplasia two procedures were used. In the first procedure, male Fisher 344 rats (18→30 weeks of age) were anaesthetised and approximately a 1 cm length of one of the carotid arteries exteriorised by dissection. The 1 cm arterial segment was clamped at both ends with padded artery clamps. A small volume of saponin solution (0.5 mg/ml in PBS) was injected, via a 30 gauge needle, into the arterial segment, left for 2 min and then withdrawn by suction. The 1 cm arterial section was ligated (5/0 silk) on each side of the needle hole and the arterial clamps removed, the artery reinteriorised and the wound sutured. On the following day animals were divided into control and treatment groups. The treatment group received the sulfated oligosaccharide, sulfated mannopentaose phosphate (PI-88) at a dose of 35 mg/kg/day for the next 14 days delivered via subcutaneously implanted miniosmotic pumps (Alzet 2ML2). Control animals were given the miniosmotic pumps containing saline. After 2 weeks the animals were anaesthetised (pentobarbitone), perfused with 10% buffered formalin for 20 minutes, euthanised (Pentobarbitone) and the denuded arterial segments were removed and processed for histological examination. The degree of intimal hyperplasia was determined using digital image analysis.
The saponin-induced vascular hyperplasia model used in this study is a new procedure which has several important features which should be highlighted. First, brief exposure to the detergent saponin is used to denude the arterial wall of endothelial cells. Such a procedure is similar to the endothelial denudation resulting from balloon angioplasty. Second, massive vascular smooth muscle hyperplasia is observed in the saponin-treated carotid artery 14 days after saponin exposure (FIG. 1) when compared with the carotid artery from an untreated control animal (FIG. 2). In fact, almost complete occlusion of the blood vessel is observed in the saponin-treated vessel (FIG. 1). Third, based on control experiments, the saponin-induced vascular hyperplasia model represents an excellent system for screening of drugs which inhibit vascular hyperplasia, a process which occurs in atherosclerotic plaques and in angioplasty-associated restenosis.

[2] = tested on: vascular intimal hyperplasia; assay: Balloon dilation model of vascular intimal hyperplasia (carotid artery); format: in vivo, rat
Text: In the second procedure, a traditional balloon dilation model, based essentially on the method described by Clowes et al.^8 was used. Thirteen male Wistar rats (16-20 weeks of age) were anaesthetised (avertin) and the left common carotid artery exteriorised via a ventral midline incision. A padded vascular clamp was applied to the most caudal end of the exteriorised artery. Following arteriotomy a 2 F Fogarty balloon catheter was inserted into the carotid artery, the vascular clamp removed and the catheter advanced 1-1.5 cm in a caudal direction. The balloon was inflated using a 0.12 cc of air and the catheter was withdrawn to the point of arterial insertion. The balloon was then deflated and this procedure was repeated twice more. On the third withdrawal the balloon was deflated, the catheter removed from the artery and simultaneously a padded vascular clamp applied immediately caudal to the arteriotomy but leaving room for the subsequent application of a ligature (5/0 silk). […]
In the second procedure employing the balloon dilation model, the degree of vascular intimal hyperplasia was calculated as a percentage of the total area of the vessel cross-section. Specifically, the percentage of hyperplasia was determined to be the area of the tunica intima divided by the cross-sectional area of the artery.

sulfated mannopentaose phosphate [PI-88]
Arterial Wall Thickness ([1]; male Fisher 344 rats, saponin denudation of carotid artery, 35 mg/kg/day for 14 days via subcutaneous miniosmotic pump, mean ± SEM, P = 0.08 vs control): 266.7 ± 27.7^b μm
Arterial Wall Thickness % Control ([1]; male Fisher 344 rats, saponin denudation, 35 mg/kg/day for 14 days via miniosmotic pump, saline control = 100, mean ± SEM, P = 0.08): 66.4 ± 6.9^b %
effect on saponin-induced smooth muscle cell hyperplasia (histology, in words) [1]: reduction in the saponin-induced vascular hyperplasia
effect on saponin-induced smooth muscle cell hyperplasia (histology, in words) ([1]; listed as sulfated mannopentaose phosphate): substantial reduction in smooth muscle cell hyperplasia
inhibition of vascular hyperplasia compared with untreated control animals ([1]; saponin model, 35 mg/kg/day via miniosmotic pumps, histological examination of carotid arteries, P=0.08): 34%
effect on vascular intimal hyperplasia (in words) ([2]; balloon dilation model, 35 mg/kg/day via miniosmotic pumps): statistically significant (P=0.0008) reduction in vascular intimal hyperplasia
Percentage of neointima ([2]; male Wistar rats, balloon catheter dilation of left common carotid artery, 35 mg/kg/day for two weeks via subcutaneous miniosmotic pump, area of tunica intima divided by cross-sectional area of artery, saline control 57.66): 36.02^a %
